For this experiment, the target named is T1, Aromatase (Homo sapiens, UniProt P11511).
T1 sequence (P11511 whole entry): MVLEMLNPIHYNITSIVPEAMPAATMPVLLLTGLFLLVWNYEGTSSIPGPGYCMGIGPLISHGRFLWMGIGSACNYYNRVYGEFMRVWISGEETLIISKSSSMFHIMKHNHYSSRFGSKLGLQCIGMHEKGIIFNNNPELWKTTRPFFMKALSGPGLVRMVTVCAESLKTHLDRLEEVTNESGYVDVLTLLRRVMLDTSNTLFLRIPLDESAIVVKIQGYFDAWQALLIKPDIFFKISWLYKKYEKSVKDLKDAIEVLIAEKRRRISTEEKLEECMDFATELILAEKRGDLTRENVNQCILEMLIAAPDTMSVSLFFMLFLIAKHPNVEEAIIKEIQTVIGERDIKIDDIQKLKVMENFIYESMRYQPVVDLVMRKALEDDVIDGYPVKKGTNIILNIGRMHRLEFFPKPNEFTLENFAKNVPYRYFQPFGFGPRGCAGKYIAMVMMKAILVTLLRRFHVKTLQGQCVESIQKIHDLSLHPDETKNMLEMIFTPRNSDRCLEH
In turn, `C[C@]12CC[C@H]3[C@@H](CCC4=CCCC[C@@]43CO)[C@@H]1C[C@@H](O)[C@@H]2O` gave an IC50 of 971 µM. Turning to `CC1=C[C@@]2(C)C(=CC1=O)C(Br)C[C@@H]1[C@@H]2CC[C@]2(C)C(=O)CC[C@@H]12` (stereo partly drawn), the IC50 is 0.71 µM.

As for `C[C@]12CCC(=O)C=C1[C@@H]1[C@H]([C@@H]3[C@@H]2CC[C@]2(C)C(=O)CC[C@@H]32)C1(F)F`, the IC50 is 1.15 µM. This IC50 is about 1.6-fold higher than that of the molecule before.

`C[C@]12CC[C@H]3[C@@H]([C@H](CCc4ccccc4)CC4=CC(=O)CC[C@@]43C)[C@@H]1CC[C@@H]2O` gave an IC50 of 0.036 µM. The molecule `C[C@]12CC[C@H]3[C@@H](CC[C@]4(F)[C@@H](O)C(=O)CC[C@]34C)[C@@H]1CCC2=O` gave an IC50 of 2.9 µM. Against the preceding molecule, the IC50 is about 81-fold higher. The figure for `C[C@]12CC[C@H]3[C@@H](C[C@H]4O[C@]45C(=O)CCC[C@]35C)C1CCC2=O` (stereo partly drawn) is 12.5 µM. Next, `C[C@]12CC[C@H]3[C@@H](C(=O)C=C4C=CCC[C@@]43CO)[C@@H]1CCC2=O`: 60 µM; `C[C@]12CC[C@H]3[C@@H](CCC4=CC(=O)CC[C@@]43CO)[C@@H]1C[C@@H](O)[C@@H]2O`: 2400 µM; `C[C@]12CC[C@H]3[C@@H](C(=O)C=C4CCCC[C@@]43CO)[C@@H]1CCC2=O`: 3.3 µM. The figure for `C[C@]12CC[C@H]3[C@@H](CCC4=CC(=O)CC[C@@]43CO)[C@@H]1CCC2=O` is 13 µM. Turning to `CCCCO[C@H]1C[C@@H]2[C@H](CC[C@]3(C)C(=O)CC[C@@H]23)c2ccc(O)cc21`, the IC50 was 170 µM.

In turn, `CCC[C@@H]1C[C@@H]2[C@H](CC[C@]3(C)C(=O)CC[C@@H]23)[C@@]2(C)C=CC(=O)C=C12` gave an IC50 of 0.06 µM. Next, `CC1(C)C[C@@]2(C)C(=C(O)C1=O)C(=O)C[C@@H]1[C@@H]2CC[C@]2(C)C(=O)CC[C@@H]12`: 0.44 µM; `C[C@]12C=CC(=O)C=C1C(Cc1ccccc1)=C[C@@H]1[C@@H]2CC[C@]2(C)C(=O)CC[C@@H]12`: 0.0929 µM; `C[C@]12CC[C@H]3[C@@H](CCC4=CC(=O)CC[C@@]43C)[C@@H]1C[C@@H](O)[C@@H]2O`: 899 µM. `CO[C@@H]1C[C@@H]2[C@H](CC[C@]3(C)C(=O)CC[C@@H]23)c2ccc(O)cc21` had an IC50 of 49 µM. `C[C@]12CC[C@@H]3c4cc(C=O)c(O)cc4CC[C@H]3[C@@H]1CCC2=O` showed an IC50 of 11 µM.

As for `C[C@]12CC[C@@H]3C4CCC(=O)C(F)=C4CC[C@H]3[C@@H]1CCC2=O` (stereo partly drawn), 0.4 µM corresponded to half-maximal inhibition (IC50). In turn, `C[C@]12CCC(=O)C=C1C=C(c1ccccc1)[C@@H]1[C@@H]2CC[C@]2(C)C(=O)CC[C@@H]12` had an IC50 of 1.43 µM. Compared with the last molecule, the IC50 is about 3.6-fold higher. The figure for `C[C@]12CC[C@H]3[C@@H](CCC4=CC(=O)CC[C@@]43CO)[C@@H]1C[C@@H](O)C2=O` is 800 µM; for `CC[C@]12CCC(=O)C=C1CC[C@@H]1[C@@H]2CC[C@]2(C)C(=O)CC[C@@H]12` it is 0.3 µM.

For `C[C@]12CC[C@H]3[C@@H](CC=C4C(=O)CCC[C@@]43CO)[C@@H]1CCC2=O`, the IC50 was 22 µM.

`CC[C@]12C=CC(=O)C=C1C=C[C@H]1[C@@H]3CCC(=O)[C@@]3(C)CC[C@@H]12` had an IC50 of 0.36 µM. This IC50 is about 61-fold lower than that of the molecule before. `CCCCCCCC[C@H]1C[C@@H]2[C@H](CC[C@]3(C)C(=O)CC[C@@H]23)[C@@]2(C)CCC(=O)C=C12` had an IC50 of 5.11 µM.

`CCC[C@@H]1C[C@@]2(C)C(=CC1=O)CC[C@@H]1[C@@H]2CC[C@]2(C)C(=O)CC[C@@H]12` gave an IC50 of 1.46 µM. This IC50 lies about 3.5-fold lower than the previous one. `CCCCCCC[C@H]1C[C@@H]2[C@H](CC[C@]3(C)C(=O)CC[C@@H]23)[C@@]2(C)C=CC(=O)C=C12` had an IC50 of 0.25 µM. The figure for `CCCCCC1=C[C@@H]2[C@H](CC[C@]3(C)C(=O)CC[C@@H]23)[C@@]2(C)CCC(=O)C=C12` is 0.22 µM; for `C[C@]12C=CC(=O)C(Sc3ccccc3)=C1CC[C@@H]1[C@@H]2CC[C@]2(C)C(=O)CC[C@@H]12` it is 0.5 µM; for `C[C@]12CCC(=O)C=C1[C@H](CCCc1ccccc1)C[C@@H]1[C@@H]2CC[C@]2(C)C(=O)CC[C@@H]12` it is 290 µM.

The molecule `C[C@]12CC[C@H]3[C@@H](C(=O)C=C4C(=O)CCC[C@@]43CO)[C@@H]1CCC2=O` showed an IC50 of 48 µM. This IC50 lies about 6-fold lower than the previous one. With `C[C@]12C=CC(=O)C=C1C(c1ccccc1)=C[C@@H]1[C@@H]2CC[C@]2(C)C(=O)CC[C@@H]12`, it took 0.54 µM to reach half-maximal inhibition (IC50). Molecule `C[C@]12CC[C@H]3[C@@H](CCC4=CC(=O)CC[C@@]43CCl)[C@@H]1CCC2=O` gave an IC50 of 1.4 µM. In turn, `C[C@]12CCC(=O)C=C1[C@H](CCCCc1ccccc1)C[C@@H]1[C@@H]2CC[C@]2(C)C(=O)CC[C@@H]12` showed an IC50 of 135 µM. The figure for `C[C@]12CC[C@H]3[C@@H](CCC4=CC(=O)CC[C@@]43CC#N)[C@@H]1CCC2=O` is 2.6 µM; for `C#CC[C@]12CCC(=O)C=C1CC[C@@H]1[C@@H]2CC[C@]2(C)C(=O)CC[C@@H]12` [PLOMESTANE] it is 1 µM.

As for `C[C@]12CC[C@H]3[C@@H](CCC4=CC(=O)CC[C@@]43CCCl)[C@@H]1CCC2=O`, it took 8 µM to reach half-maximal inhibition (IC50). The figure for `C[C@]12CC[C@@H]3C4CCCCC4=CC(=O)[C@H]3[C@@H]1CCC2=O` (stereo partly drawn) is 28 µM; for `C=C[C@@H]1C[C@@H]2[C@H](CC[C@]3(C)C(=O)CC[C@@H]23)[C@@]2(C)CCC(=O)C=C12` it is 0.32 µM. The figure for `C[C@]12CCC(=O)C=C1C(CCCCCc1ccccc1)=C[C@@H]1[C@@H]2CC[C@]2(C)C(=O)CC[C@@H]12` is 0.3 µM.

Consider `C[C@]12CC[C@@H]3c4ccc(O)c(NC(=O)c5ccncc5)c4CC[C@H]3[C@@H]1CCC2=O`, for which the IC50 was 28.6 µM. As to `C[C@]12CCC(=O)C=C1C[C@@H](Sc1ccc(N)cc1)[C@@H]1[C@@H]2CC[C@]2(C)C(=O)CC[C@@H]12`, the 50% inhibitory concentration (IC50) was 0.16 µM. The figure for `COC1=C2CC[C@@H]3[C@H](CC[C@]4(C)C(=O)CC[C@@H]34)[C@@]2(C)CCC1=O` is 7.19 µM; for `C[C@]12CCC(=O)C=C1CC[C@@H]1[C@@H]2CC[C@]2(C)C(=O)CC[C@@H]12` [ANDROSTENEDIONE] it is 1 µM.

Turning to `CC[C@H]1C[C@@H]2[C@H](CC[C@]3(C)C(=O)CC[C@@H]23)[C@@]2(C)C=CC(=O)C=C12`, half-maximal inhibition (IC50) required 0.25 µM. The figure for `CCCCCC[C@@H]1C[C@@H]2[C@H](CC[C@]3(C)C(=O)CC[C@@H]23)[C@@]2(C)CCC(=O)C=C12` is 0.43 µM; for `CCCCCCCC[C@@H]1C[C@@H]2[C@H](CC[C@]3(C)C(=O)CC[C@@H]23)[C@@]2(C)CCC(=O)C=C12` it is 1.8 µM; for `C[C@]12CC[C@H]3[C@@H](CCC4=CC(=O)C=C[C@@]43CCl)[C@@H]1CCC2=O` it is 0.951 µM.

Molecule `C[C@]12C[C@@H](CCCc3ccccc3)C(=O)C=C1CC[C@@H]1[C@@H]2CC[C@]2(C)C(=O)CC[C@@H]12` showed an IC50 of 50.2 µM. Compared with the last molecule, the IC50 is about 53-fold higher.

Consider `C[C@]12CC[C@H]3[C@@H](CCC4=CCCC[C@@]43C(F)F)[C@@H]1CCC2=O`, for which it took 1.2 µM to reach half-maximal inhibition (IC50). The figure for `CC(=O)OC1=C2C=C[C@@H]3[C@H](CC[C@]4(C)C(=O)CC[C@@H]34)[C@@]2(C)CCC1=O` is 8 µM; for `CCCCCCCC1=C[C@@H]2[C@H](CC[C@]3(C)C(=O)CC[C@@H]23)[C@@]2(C)C=CC(=O)C=C12` it is 0.23 µM; for `C[C@]12CC[C@H]3[C@@H](CC(=O)[C@]45O[C@H]4CCC[C@]35C)C1CCC2=O` (stereo partly drawn) it is 11.5 µM.

As for `C[C@]12CCC(=O)C=C1C[C@@H](Cc1ccccc1)[C@@H]1[C@@H]2CC[C@]2(C)C(=O)CC[C@@H]12`, it took 0.328 µM to reach half-maximal inhibition (IC50). The figure for `C[C@]12C=CC(=O)C=C1C[C@@H](CCc1cccc([N+](=O)[O-])c1)[C@@H]1[C@@H]2CC[C@]2(C)C(=O)CC[C@@H]12` is 0.133 µM; for `CCCCCCC1=C[C@@H]2[C@H](CC[C@]3(C)C(=O)CC[C@@H]23)[C@@]2(C)C=CC(=O)C=C12` it is 0.155 µM.

In turn, `C[C@]12CC[C@H]3[C@@H](CCC4=CCCC[C@@]43CO)[C@@H]1CCC2O` (stereo partly drawn) showed an IC50 of 2.3 µM. This IC50 is about 15-fold higher than that of the molecule before. The figure for `C#C[C@H](O)[C@]12CCCC=C1CC[C@@H]1[C@@H]2CC[C@]2(C)C(=O)CC[C@@H]12` is 61.9 µM.

On to `C[C@]12CC[C@H]3[C@@H](CC=C4CCCC[C@@]43C=O)[C@@H]1CCC2=O`, for which half-maximal inhibition (IC50) was put at 8.99 µM. Turning to `CC[C@@H]1C[C@@H]2[C@H](CC[C@]3(C)C(=O)CC[C@@H]23)[C@@]2(C)CCCC=C12`, the IC50 was 0.32 µM. Next, `CCCCO[C@@H]1C[C@@H]2[C@H](CC[C@]3(C)C(=O)CC[C@@H]23)c2ccc(O)cc21`: 174 µM; `C[C@]12CCCCC1=CC[C@@H]1[C@@H]2CC[C@]2(C)C(O)CC[C@@H]12` (stereo partly drawn): 30 µM.

`C[C@]12CC[C@@H]3c4ccc(O)cc4[C@@H](Cc4ccccc4)C[C@H]3[C@@H]1CCC2=O` showed an IC50 of 3.5 µM. `CCC[C@@H]1C[C@@H]2[C@H](CC[C@]3(C)C(=O)CC[C@@H]23)[C@@]2(C)CCC(=O)C=C12`: half-maximal inhibition (IC50) required 0.24 µM.

Values taken from ChEMBL document CHEMBL5241054, “Effective anti-aromatase therapy to battle against estrogen-mediated breast cancer: Comparative SAR/QSAR assessment on steroidal aromatase inhibitors” (Eur J Med Chem, 2020).
